Each molecule was assayed against T1, CCR2 (Homo sapiens, UniProt P41597) (assay: MCP-1 Receptor Binding Assay in THP-1 Cells (125I labeled MCP-1)). Details: 0.5 nM 125I labeled MCP-1, 2 hours at 30° C., read-out: Inhibition of MCP-1 Binding IC50, CCR2 Binding.
T1 construct: host or cells: THP-1 (human monocytic cell line)
T1 sequence (P41597 1-360 isoform P41597-2): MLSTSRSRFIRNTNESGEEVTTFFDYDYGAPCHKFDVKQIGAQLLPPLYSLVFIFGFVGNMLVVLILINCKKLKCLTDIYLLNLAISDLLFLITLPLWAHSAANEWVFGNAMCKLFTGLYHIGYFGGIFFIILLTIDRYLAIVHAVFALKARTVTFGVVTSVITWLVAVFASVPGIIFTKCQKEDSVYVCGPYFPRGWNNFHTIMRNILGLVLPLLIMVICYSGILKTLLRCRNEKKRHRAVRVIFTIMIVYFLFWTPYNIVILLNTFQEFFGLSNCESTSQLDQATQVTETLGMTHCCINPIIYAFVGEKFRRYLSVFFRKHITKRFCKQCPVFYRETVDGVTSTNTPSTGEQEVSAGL
Experimental: Compounds of the invention were subjected to various representative biological tests. […] MCP-1 Receptor Binding Assay in THP-1 Cells
Human monocytic cell line THP-1 cells were obtained from American Type Culture Collection (Manassas, Va., USA). […] The cell density was maintained […].
1 μM cold MCP-1 was used for nonspecific binding.

| Structure (SMILES) | IC50 [nM] |
| --- | --- |
| Nc1ccc(C2CCC(N3CC(NC(=O)CNC(=O)c4cccc(C(F)(F)F)c4)C3)CC2)nc1 (centres unmarked) [Example 21, N-({1-[4-(5-Amino-pyridin-2-yl)-cyclohexyl]-azetidin-3-ylcarbamoyl}-methyl)-3-trifluoromethyl-benzamide] | 85 |
| O=C(CNC(=O)c1cccc(C(F)(F)F)c1)NC1CN(C2CCC(c3cccc(NC(=O)C(F)(F)F)n3)CC2)C1 (centres unmarked) [Example 24, N-[(1-{4-[6-(2,2,2-Trifluoro-acetylamino)-pyridin-2-yl]-cyclohexyl}-azetidin-3-ylcarbamoyl)-methyl]-3-trifluoromethyl-benzamide] | 60 |
| N#CNc1cccc(C2CCC(N3CC(NC(=O)CNC(=O)c4cccc(C(F)(F)F)c4)C3)CC2)n1 (centres unmarked) [Example 25, N-({1-[4-(6-Cyanoamino-pyridin-2-yl)-cyclohexyl]-azetidin-3-ylcarbamoyl}-methyl)-3-trifluoromethyl-benzamide] | 210 |
| CS(=O)(=O)Nc1cccc(C2CCC(N3CC(NC(=O)CNC(=O)c4cccc(C(F)(F)F)c4)C3)CC2)n1 (centres unmarked) [Example 26, N-({1-[4-(6-Methanesulfonylamino-pyridin-2-yl)-cyclohexyl]-azetidin-3-ylcarbamoyl}-methyl)-3-trifluoromethyl-benzamide] | 840 |
| Nc1cccc(C2CCC(N3CC(NC(=O)CNC(=O)c4ccc(F)c(C(F)(F)F)c4)C3)CC2)n1 (centres unmarked) [Example 28, N-({1-[4-(6-Amino-pyridin-2-yl)-cyclohexyl]-azetidin-3-ylcarbamoyl}-methyl)-4-fluoro-3-trifluoromethyl-benzamide] | 89 |
| CNc1ccncc1C1CCC(N2CC(NC(=O)CNC(=O)c3cccc(C(F)(F)F)c3)C2)CC1 (centres unmarked) [Example 29a, N-({1-[4-(4-Methylamino-pyridin-3-yl)-cyclohexyl]-azetidin-3-ylcarbamoyl}-methyl)-3-trifluoromethyl-benzamide] | 1200 |
| CN(C)c1ccncc1C1CCC(N2CC(NC(=O)CNC(=O)c3cccc(C(F)(F)F)c3)C2)CC1 (centres unmarked) [Example 29b, N-({1-[4-(4-Dimethylamino-pyridin-3-yl)-cyclohexyl]-azetidin-3-ylcarbamoyl}-methyl)-3-trifluoromethyl-benzamide] | 10000 |
| Nc1cncc(C2CCC(N3CC(NC(=O)CNC(=O)c4cccc(C(F)(F)F)c4)C3)CC2)c1 (centres unmarked) [Example 32, N-({1-[4-(5-Amino-pyridin-3-yl)-cyclohexyl]-azetidin-3-ylcarbamoyl}-methyl)-3-trifluoromethyl-benzamide] | 320 |
| Nc1ccnc(C2CCC(N3CC(NC(=O)CNC(=O)c4cccc(C(F)(F)F)c4)C3)CC2)c1 (centres unmarked) [Example 33, N-({1-[4-(4-Amino-pyridin-2-yl)-cyclohexyl]-azetidin-3-ylcarbamoyl}-methyl)-3-trifluoromethyl-benzamide] | 250 |
| Nc1cccc(C2CCC(N3CC(NC(=O)CNC(=O)c4cc(F)cc(C(F)(F)F)c4)C3)CC2)n1 (centres unmarked) [Example 34, N-({1-[4-(6-Amino-pyridin-2-yl)-cyclohexyl]-azetidin-3-ylcarbamoyl}-methyl)-3-fluoro-5-trifluoromethyl-benzamide] | 120 |
| CCn1cc(C2CCC(N3CC(NC(=O)CNC(=O)c4cccc(C(F)(F)F)c4)C3)CC2)ccc1=O (centres unmarked) [Example 39a, N-({1-[4-(1-Ethyl-6-oxo-1,6-dihydro-pyridin-3-yl)-cyclohexyl]-azetidin-3-ylcarbamoyl}-methyl)-3-trifluoromethyl-benzamide] | 37 |
| N#CCn1cc(C2CCC(N3CC(NC(=O)CNC(=O)c4cccc(C(F)(F)F)c4)C3)CC2)ccc1=O (centres unmarked) [Example 41, N-({1-[4-(1-Cyanomethyl-6-oxo-1,6-dihydro-pyridin-3-yl)-cyclohexyl]-azetidin-3-ylcarbamoyl}-methyl)-3-trifluoromethyl-benzamide] | 130 |
| O=C(CNC(=O)c1cccc(C(F)(F)F)c1)NC1CN(C2CCC(c3ccc(=O)n(CCO)c3)CC2)C1 (centres unmarked) [Example 43, N-[(1-{4-[1-(2-Hydroxy-ethyl)-6-oxo-1,6-dihydro-pyridin-3-yl]-cyclohexyl}-azetidin-3-ylcarbamoyl)-methyl]-3-trifluoromethyl-benzamide] | 330 |
| O=C(CNC(=O)c1cccc(C(F)(F)F)c1)NC1CN(C2CCC(c3cccc(=O)[nH]3)CC2)C1 (centres unmarked) [Example 47, N-({1-[4-(6-Oxo-1,6-dihydro-pyridin-2-yl)-cyclohexyl]-azetidin-3-ylcarbamoyl}-methyl)-3-trifluoromethyl-benzamide] | 180 |
| Cn1cccc(C2CCC(N3CC(NC(=O)CNC(=O)c4cccc(C(F)(F)F)c4)C3)CC2)c1=O (centres unmarked) [Example 48, N-({1-[4-(1-Methyl-2-oxo-1,2-dihydro-pyridin-3-yl)-cyclohexyl]-azetidin-3-ylcarbamoyl}-methyl)-3-trifluoromethyl-benzamide] | 630 |
| O=C(CNC(=O)c1ccccc1)NC1CN(C2CCC(c3c[nH]c4ccccc34)CC2)C1 (centres unmarked) [Example 49, N-({1-[4-(1H-Indol-3-yl)-cyclohexyl]-azetidin-3-ylcarbamoyl}-methyl)-benzamide] | > 25000 |
| O=C(CNC(=O)c1cccc(C(F)(F)F)c1)NC1CN(C2CCC(c3c[nH]c4ccccc34)CC2)C1 (centres unmarked) [Example 50, N-({1-[4-(1H-Indol-3-yl)-cyclohexyl]-azetidin-3-ylcarbamoyl}-methyl)-3-trifluoromethyl-benzamide] | 920 |
| NC(=O)c1ncc(C2CCC(N3CC(NC(=O)CNC(=O)c4cccc(C(F)(F)F)c4)C3)CC2)s1 (centres unmarked) [Example 53, 5-(4-{3-[2-(3-Trifluoromethyl-benzoylamino)-acetylamino]-azetidin-1-yl}-cyclohexyl)-thiazole-2-carboxylic acid amide] | 1000 |
| O=C(CNC(=O)c1cccc(C(F)(F)F)c1)NC1CN(C2CCC(c3c[nH]c(=O)s3)CC2)C1 (centres unmarked) [Example 54, N-({1-[4-(2-Oxo-2,3-dihydro-thiazol-5-yl)-cyclohexyl]-azetidin-3-ylcarbamoyl}-methyl)-3-trifluoromethyl-benzamide] | 340 |
| Nc1noc(N)c1C1CCC(N2CC(NC(=O)CNC(=O)c3cccc(C(F)(F)F)c3)C2)CC1 (centres unmarked) [Example 55, N-({1-[4-(3,5-Diimino-isoxazolidin-4-yl)-cyclohexyl]-azetidin-3-ylcarbamoyl}-methyl)-3-trifluoromethyl-benzamide] | 125 |
| Cn1cc(C2CCC(N3CC(NC(=O)CNC(=O)c4cccc(C(F)(F)F)c4)C3)CC2)c(=O)[nH]c1=O (centres unmarked) [Example 56, N-({1-[4-(1-Methyl-2,4-dioxo-1,2,3,4-tetrahydro-pyrimidin-5-yl)-cyclohexyl]-azetidin-3-ylcarbamoyl}-methyl)-3-trifluoromethyl-benzamide] | 5800 |
| O=C(CNC(=O)c1cccc(C(F)(F)F)c1)NC1CN(C2CCC(c3noc(=O)[nH]3)CC2)C1 (centres unmarked) [Example 57, N-({1-[4-(5-Oxo-4,5-dihydro-[1,2,4]oxadiazol-3-yl)-cyclohexyl]-azetidin-3-ylcarbamoyl}-methyl)-3-trifluoromethyl-benzamide] | 1100 |
| O=C(CNC(=O)c1cccc(C(F)(F)F)c1)NC1CN(C2CCC(c3noc(C(Cl)(Cl)Cl)n3)CC2)C1 (centres unmarked) [Example 58, N-({1-[4-(5-Trichloromethyl-[1,2,4]oxadiazol-3-yl)-cyclohexyl]-azetidin-3-ylcarbamoyl}-methyl)-3-trifluoromethyl-benzamide] | 510 |

— US8269015B2, “4-azetidinyl-1-heteroaryl-cyclohexane antagonists of CCR2” (Janssen Pharmaceutica N.V., priority 2009, dated 2012)
